From patent US20220401564A1 (DANA-FARBER CANCER INSTITUTE, INC., priority 2019, published 2022)

Columns and labels:
Assay in all cases: HDAC enzymatic assay (Reaction Biology), fluorogenic substrate
Type in all cases: biochemical
[1] = target: T1, HDAC1 (Homo sapiens, UniProt Q13547)
T1 construct: purchased Reaction Biology
Protocol: (§1) Compounds 2 and 9 were tested in an enzymatic assay from Reaction Biology® against HDAC isoforms.
(§2) Base Reaction buffer: 50 mM Tris-HCl, pH8.0, 137 mM NaCl, 2.7 mM KCl, and 1 mM MgCl2. Add fresh: 1 mg/ml BSA, 1% DMSO
(§3) Fluorogenic HDAC General Substrate (HDAC1, HDAC2, HDAC3, HDAC6, HDAC10, and HDAC11): 50 μM, Arg-His-Lys-Lys(Ac)-AMC
(§4) 1. Delivered 2X enzyme in wells of reaction plate except in the control wells and added buffer to control wells. 2. Delivered compounds in 100% DMSO into the enzyme mixture by Acoustic technology (Echo550; nanoliter range). Spin down and pre-incubation. 3. Delivered 2X Substrate Mixture (Fluorogenic HDAC Substrate and co-factor if applicable) in all reaction wells to initiate the reaction. Spin and shake. 4. Incubated for 30 min for Class 2A, 1 h for HDAC1, 2, 3, and 6, and 2 h for the rest of HDAC isoforms and SIRTs at 30° C. with seal.
(§5) 5. Added Developer with Trichostatin A (or Nicotinamide for SIRTs) to stop the reaction and to generate fluorescent color. 6. The fluorescence that was generated was detected with excitation (Ex) at […] and emission (Em) at 460 nM by the EnVision Multilabel Plate Reader (PerkinElmer®, Santa Clara, Calif., USA).
(§6) IC50 values were derived from a 10-dose response curve. As shown in Tables 1-2, the addition of a linker and CRBN targeting group altered the isoform selectivity of the SAHA-based degrader compounds.

[2] = target: T2, HDAC2 (Homo sapiens, UniProt Q92769)
T2 construct: purchased Reaction Biology
T2 sequence (Q92769 whole entry): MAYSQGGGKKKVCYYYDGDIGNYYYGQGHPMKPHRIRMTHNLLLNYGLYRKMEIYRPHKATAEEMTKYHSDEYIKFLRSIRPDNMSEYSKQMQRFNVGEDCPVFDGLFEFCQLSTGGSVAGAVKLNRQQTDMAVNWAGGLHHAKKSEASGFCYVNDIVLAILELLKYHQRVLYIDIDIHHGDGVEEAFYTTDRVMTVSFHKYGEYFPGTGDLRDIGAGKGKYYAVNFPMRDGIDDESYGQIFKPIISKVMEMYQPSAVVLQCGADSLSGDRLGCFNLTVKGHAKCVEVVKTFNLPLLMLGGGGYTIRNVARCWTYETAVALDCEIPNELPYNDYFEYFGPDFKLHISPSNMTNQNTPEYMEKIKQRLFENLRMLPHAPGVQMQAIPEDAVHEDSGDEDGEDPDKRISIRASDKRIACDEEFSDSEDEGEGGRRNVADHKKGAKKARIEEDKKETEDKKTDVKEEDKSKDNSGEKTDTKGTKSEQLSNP
Protocol: as §1, §2, §3, §4, §5, §6

[3] = target: T3, HDAC6 (Homo sapiens, UniProt Q9UBN7); parameters: purchased Reaction Biology
T3 sequence (Q9UBN7 1-1215): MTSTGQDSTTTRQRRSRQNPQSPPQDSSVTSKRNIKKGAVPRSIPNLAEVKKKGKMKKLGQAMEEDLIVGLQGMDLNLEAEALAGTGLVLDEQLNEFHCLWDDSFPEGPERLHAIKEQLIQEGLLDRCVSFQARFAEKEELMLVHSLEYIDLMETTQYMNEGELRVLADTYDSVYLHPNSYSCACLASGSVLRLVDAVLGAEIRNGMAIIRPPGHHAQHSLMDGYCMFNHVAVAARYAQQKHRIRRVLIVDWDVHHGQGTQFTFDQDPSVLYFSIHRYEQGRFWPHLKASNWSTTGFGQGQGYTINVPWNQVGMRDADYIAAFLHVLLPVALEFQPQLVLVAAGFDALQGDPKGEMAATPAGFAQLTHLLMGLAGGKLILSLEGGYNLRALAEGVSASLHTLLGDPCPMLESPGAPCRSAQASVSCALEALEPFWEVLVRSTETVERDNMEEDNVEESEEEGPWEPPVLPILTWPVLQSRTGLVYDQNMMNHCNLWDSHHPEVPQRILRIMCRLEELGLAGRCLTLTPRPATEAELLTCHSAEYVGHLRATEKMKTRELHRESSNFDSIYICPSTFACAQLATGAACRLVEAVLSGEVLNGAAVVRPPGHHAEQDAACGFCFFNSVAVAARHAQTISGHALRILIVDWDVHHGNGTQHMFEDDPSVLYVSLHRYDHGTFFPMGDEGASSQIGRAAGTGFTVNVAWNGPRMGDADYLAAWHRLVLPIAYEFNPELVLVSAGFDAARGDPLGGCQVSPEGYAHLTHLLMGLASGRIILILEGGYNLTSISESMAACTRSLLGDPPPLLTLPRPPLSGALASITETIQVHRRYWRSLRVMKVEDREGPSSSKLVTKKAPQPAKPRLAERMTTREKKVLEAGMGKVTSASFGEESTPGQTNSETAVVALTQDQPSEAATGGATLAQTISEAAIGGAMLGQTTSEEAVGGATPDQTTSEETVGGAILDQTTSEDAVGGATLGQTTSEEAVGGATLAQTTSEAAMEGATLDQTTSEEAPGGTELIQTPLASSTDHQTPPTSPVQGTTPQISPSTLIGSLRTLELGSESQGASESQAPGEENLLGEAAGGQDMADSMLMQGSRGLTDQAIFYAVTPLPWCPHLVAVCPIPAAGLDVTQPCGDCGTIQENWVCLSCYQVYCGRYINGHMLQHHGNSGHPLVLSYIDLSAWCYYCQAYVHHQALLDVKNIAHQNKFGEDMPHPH
Protocol: as §1, §2, §3, §4, §5, §6

T1 sequence (Q13547 whole entry): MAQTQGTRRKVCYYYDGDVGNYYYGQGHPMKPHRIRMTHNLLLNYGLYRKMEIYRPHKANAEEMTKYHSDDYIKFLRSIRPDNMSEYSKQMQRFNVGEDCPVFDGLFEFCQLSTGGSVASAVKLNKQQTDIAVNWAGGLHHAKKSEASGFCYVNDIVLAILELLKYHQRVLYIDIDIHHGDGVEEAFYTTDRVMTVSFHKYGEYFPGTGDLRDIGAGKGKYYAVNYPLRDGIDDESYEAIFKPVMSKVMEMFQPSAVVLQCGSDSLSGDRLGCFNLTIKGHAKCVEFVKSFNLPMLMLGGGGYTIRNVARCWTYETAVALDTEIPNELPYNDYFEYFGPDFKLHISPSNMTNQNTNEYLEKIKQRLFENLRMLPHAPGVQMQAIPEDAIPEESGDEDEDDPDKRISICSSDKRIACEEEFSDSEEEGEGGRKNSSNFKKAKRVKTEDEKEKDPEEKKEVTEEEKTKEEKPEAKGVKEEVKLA

inhibition of HDAC1 deacetylase activity in vitro (in words) [1]: Moderate inhibition
IC50 ([1]; 10-dose response curve, read-out: Compound IC50 (M), HDAC1): 4.81e-07 M
inhibition of HDAC2 deacetylase activity in vitro (in words) [2]: Moderate inhibition
IC50 ([2]; 10-dose response curve, read-out: Compound IC50 (M), HDAC2): 1.03e-06 M
inhibition of HDAC6 activity in vitro (in words) [3]: potently inhibited
IC50 ([3]; 10-dose response curve, read-out: Compound IC50 (M), HDAC6): 7.85e-08 M
Structure (SMILES): Cc1ncsc1-c1ccc([C@H](C)NC(=O)[C@@H]2C[C@@H](O)CN2C(=O)[C@@H](NC(=O)CCOCCOCCN(CCc2c[nH]c3ccccc23)Cc2ccc(/C=C/C(=O)NO)cc2)C(C)(C)C)cc1 [Compound 2, (2S,4R)-1-((S)-14-(tert-butyl)-3-(4-((E)-3-(hydroxyamino)-3-oxoprop-1-en-1-yl)benzyl)-1-(1H-indol-3-yl)-12-oxo-6,9-dioxa-3,13-diazapentadecan-15-oyl)-4-hydroxy-N—((S)-1-(4-(4-methylthiazol-5-yl)phenyl)ethyl)pyrrolidine-2-carboxamide]
